Results taken from patent US5703109A, “Selective aromatase inhibiting compounds” (Oy; Orion-yhtyma, priority 1992, dated 1997).
pIC50: −log10 of the molar value.

Columns and labels:
human aromatase = target: T1, human aromatase (Homo sapiens, UniProt P11511); test: Inhibition of human aromatase (3H2O release from 1,2[3H]-androstene-3,17-dione, human placenta microsomes); format: biochemical; settings: human placental microsomes, 37° C., 40 min; read-out: AROMATASE IC-50
T1 construct: The enzyme preparation was used without further purification; from tissue; host or cells: human placenta, microsomal fraction (100000×g precipitate)
T1 sequence (P11511 1-503): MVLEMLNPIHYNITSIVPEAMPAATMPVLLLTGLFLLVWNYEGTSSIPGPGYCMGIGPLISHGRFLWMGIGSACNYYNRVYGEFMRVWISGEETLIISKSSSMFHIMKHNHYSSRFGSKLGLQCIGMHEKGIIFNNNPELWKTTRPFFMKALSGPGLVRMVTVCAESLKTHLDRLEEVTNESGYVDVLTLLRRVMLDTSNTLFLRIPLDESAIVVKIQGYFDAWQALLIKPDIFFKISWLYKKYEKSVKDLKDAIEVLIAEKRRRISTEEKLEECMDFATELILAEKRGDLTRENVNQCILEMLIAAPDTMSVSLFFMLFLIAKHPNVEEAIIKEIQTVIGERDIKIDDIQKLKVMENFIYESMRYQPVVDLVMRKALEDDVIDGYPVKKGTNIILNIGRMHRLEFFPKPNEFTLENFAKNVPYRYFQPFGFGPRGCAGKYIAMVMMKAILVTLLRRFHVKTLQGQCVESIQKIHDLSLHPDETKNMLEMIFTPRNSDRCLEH
Method: Human aromatase enzyme was used. The enzyme was prepared from human placenta, which is rich of the enzyme. Microsomal fraction (100000×g precipitate) was prepared by centrifugation. The enzyme preparation was used without further purification. Test compounds listed in Table 1 were added together with 100000 dpm of 1,2[^3 H]-androstene-3,17-dione and NADPH generating system. The concentrations of the test compounds were 0.001; 0.01; 0.1 and 1.0 mM. The incubation was carried out at 37° C. for 40 min. […] Radioactivity was counted by a liquid scintillation counter. Aromatase inhibition was evaluated by comparing the ^3 H2 O-radioactivity of inhibitor treated samples to controls containing no inhibitor. IC-50 values were calculated as concentrations which inhibited the enzyme activity 50%.

desmolase = test: Inhibition of desmolase (cholesterol side chain cleavage, SCC, activity); format: biochemical; settings: mitochondrial fraction from human placenta or bovine adrenals, 37° C., 30 min; read-out: DESMOLASE IC-50
Method: Incubations were carried out in 1,5 ml Eppendorf plastic robes, and an Eppendoff shaker, centrifuge and incubator were used as a unit. […] Controls contained all the above substances but the enzyme preparation was inactivated prior to the incubation by the addition of 900 μl of methanol. The mitochondrial fraction (1 mg protein) from human placenta or bovine adrenals was used as a source of enzyme. After 30 min incubation at 37° C., the reaction was terminated by the addition of 900 μl of methanol; 1500 dpm of marker ^14 C-4-pregnenolone was added to each incubate and the robes were vigorously shaken. […] The column was washed with one ml of 75% methanol and then with 3 ml of 80% methanol The 80% methanol eluate was run into the counting vial and 10 ml of scintillation liquid was added. Radioactivity was counted using a double-label program on a liquid scintillation counter (LKB RackBeta).
In inhibition experiments, the substance (final concentration range from 1 to 1000 μM) was added into incubation mixture in a volume of 10-20 μl, usually as methanol or ethanol solution. The same volume of the solute was added into control incubation vial.

[1] = Acute toxicity, LD50, oral, in mice; format: in vivo; settings: young adult female NMRI mice
From the text: […]. The administration of the test compound was oral.

| Compound | pIC50 (human aromatase) | pIC50 (desmolase) | Acute toxicity (LD50 determination): tolerability of the highest dose tested ([1]; highest dose tested 400 mg/kg) | Acute toxicity (LD50 determination): adverse effects ([1]; up to 400 mg/kg) |
| --- | --- | --- | --- | --- |
| N#Cc1ccc(C(C(O)CCc2ccc(F)cc2)n2ccnc2)cc1 (single isomer, unassigned) [Compound 2, 1-[1-(4-cyanophenyl)-4-(4-fluorophenyl)-2-hydroxybutyl]-1H-imidazole, diastereomer a + d] | 6.74 | 4.31 | – | – |
| N#Cc1ccc(C(C(O)Cc2ccc(F)cc2)n2cncn2)cc1 (single isomer, unassigned) [Compound 4, 1-[1-(4-cyanophenyl)-3-(4-fluorophenyl)-2-hydroxypropyl]-1,2,4-triazole, diastereomer a + d] | 6.59 | < 3.00 | well tolerated | No adverse effects were seen |
| N#Cc1ccc(C(C(O)CCc2ccc(F)cc2)n2cncn2)cc1 (single isomer, unassigned) [Compound 5, 1-[1-(4-cyanophenyl)-4-(4-fluorophenyl)-2-hydroxybutyl]-1,2,4-triazole, diastereomer a + d] | 6.02 | < 3.00 | – | – |
| N#Cc1ccc(C(=CCCc2ccc(F)cc2)n2cncn2)cc1 (single isomer, unassigned; isomer b) [Compound 3, 1-[1-(4-cyanophenyl)-4-(4-fluorophenyl)-1-butenyl]-1,2,4-triazole, isomer b] | – | 3.52 | – | – |
| N#Cc1ccc(C(=CCc2ccc(F)cc2)n2cncn2)cc1 (single isomer, unassigned; isomer b) [Compound 8, 1-[1-(4-cyanophenyl)-3-(4-fluorophenyl)-1-propenyl]-1,2,4-triazole, isomer b] | – | 3.78 | – | – |
| N#Cc1ccc(C(CCCc2ccc(F)cc2)n2ccnc2)cc1 (centres unmarked) [Compound 1, 1-[1-(4-cyanophenyl)-4-(4-fluorophenyl)butyl]-1H-imidazole] | – | 4.77 | – | – |
| N#Cc1ccc(C(CC(O)c2ccc(F)cc2)n2cncn2)cc1 (centres unmarked) [Compound 6, 1-[1-(4-cyanophenyl)-3-(4-fluorophenyl)-3-hydroxypropyl]-1,2,4-triazole] | 6.52 | 3.42 | – | – |
| N#Cc1ccc(C(C(=O)CCc2ccc(F)cc2)n2cncn2)cc1 (centres unmarked) [Compound 7, 1-[1-(-4-cyanophenyl)-4-(4-fluorophenyl)-2-oxobutyl]-1,2,4-triazole] | 6.05 | 3.76 | – | – |
| N#Cc1ccc(C(O)(CCc2ccc(F)cc2)c2cncs2)cc1 (centres unmarked) [Compound 9, 5-[1-(4-cyanophenyl)-3-(4-fluorophenyl)-1-hydroxypropyl]thiazole] | 6.55 | 3.52 | – | – |
